Drawing on PubChem BioAssay (NCI), this text covers TGI and GI50 for 14 compounds.

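Assay format: 96-well plates, 48-hour exposure. GI50 marks 50% less growth. TGI is the concentration that stops growth completely.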 Where a SMILES comes first, the peptide text is derived from it. [ ]: non-standard residue; d: D form. Phe(F5) = N[CH](Cc1c(F)c(F)c(F)c(F)c1F)C(=O)O

Test systems include SK-MEL-28 melanoma; M14 melanoma; UACC-257 melanoma; SF-295 CNS; SK-OV-3 ovarian; HL-60(TB) leukemia; HCT-116 colon; HCT-15 colon; A498 renal; BT-549 breast.
Common to all, as to assay: inhibition of tumour cell growth, NCI panel, 48 h

Regarding `CN(C)c1ccc2c(NCCCCCCNc3ccnc4cc(N(C)C)ccc34)ccnc2c1`, the TGI with SK-MEL-28 melanoma is 50.8 µM; with M14 melanoma, above 100 µM; in the experiment with UACC-257 melanoma, 49.9 µM; with SF-295 CNS, 40.3 µM; in the experiment with SK-OV-3 ovarian, above 100 µM; in the experiment on HL-60(TB) leukemia it was above 100 µM. Further, the TGI was above 100 µM in the experiment with HCT-116 colon, above 100 µM with HCT-15 colon and 95.8 µM in the experiment on A498 renal.

For the compound `CC(=O)OC1c2ccccc2CC2(OC(C)=O)c3ccccc3C12` (centres undefined), the TGI in the experiment on SK-MEL-28 melanoma, in the experiment on M14 melanoma, with UACC-257 melanoma, in the experiment with SF-295 CNS, with SK-OV-3 ovarian and in the experiment with HCT-116 colon was above 100 µM throughout. In addition, the TGI in the experiment on HCT-15 colon and in the experiment on A498 renal was above 100 µM each time.

Turning to `CC12CCC(=O)C(O1)C1C(=O)c3cc4ccccc4cc3C(=O)C12` (centres undefined), the GI50 was 20.3 µM with SK-MEL-28 melanoma; 21.5 µM in the experiment on M14 melanoma; 16.2 µM in the experiment on UACC-257 melanoma; 46.6 µM with SK-OV-3 ovarian; 19.5 µM in the experiment on HL-60(TB) leukemia; 17.7 µM in the experiment on HCT-116 colon. The GI50 with HCT-15 colon is 17.3 µM; with BT-549 breast, 23.7 µM. Also, the TGI with SK-MEL-28 melanoma is 74.4 µM; in the experiment with M14 melanoma, 53.3 µM; in the experiment on UACC-257 melanoma it was 32.5 µM; in the experiment with SK-OV-3 ovarian, above 100 µM; in the experiment with HL-60(TB) leukemia, 48 µM; in the experiment with HCT-116 colon, 34.6 µM. For the same compound, the TGI turned out to be 36.8 µM in the experiment with HCT-15 colon and 58.6 µM in the experiment with BT-549 breast.

`COC(=O)C(CC(C)C)NC(=O)C(Cc1cnc[nH]1)NC(=O)CNC(=O)C(NC(=O)C(C)NC(=O)C(Cc1c[nH]c2ccccc12)NC(=O)C(CCC(=O)O)NC(=O)C(N)Cc1c(F)c(F)c(F)c(F)c1F)C(C)C` (centres undefined) (H-[Phe(F5)]EWAVGHL-OMe; configuration not given here): the GI50 with SK-MEL-28 melanoma, in the experiment on M14 melanoma, in the experiment with UACC-257 melanoma, in the experiment with SF-295 CNS, with HL-60(TB) leukemia and with HCT-116 colon was above 100 µM throughout. Further, the GI50 with HCT-15 colon and in the experiment with A498 renal was above 100 µM in each case. In addition, the TGI in the experiment on SK-MEL-28 melanoma is above 100 µM; with M14 melanoma it was above 100 µM; with UACC-257 melanoma, above 100 µM; in the experiment on SF-295 CNS it was above 100 µM; with SK-OV-3 ovarian, above 12.5 µM; in the experiment with HL-60(TB) leukemia it was above 100 µM. The TGI in the experiment with HCT-116 colon, with HCT-15 colon and in the experiment with A498 renal was above 100 µM throughout.

In the case of `CC1=C2CCCC2C/C(=N/Nc2ccc([N+](=O)[O-])cc2[N+](=O)[O-])CC1` (centres undefined), the TGI in the experiment with SK-MEL-28 melanoma is above 100 µM; in the experiment with M14 melanoma, above 100 µM; in the experiment with UACC-257 melanoma, above 100 µM; in the experiment on SF-295 CNS, above 100 µM; in the experiment on SK-OV-3 ovarian, above 100 µM; in the experiment with HL-60(TB) leukemia it was 83.2 µM. Moreover, the TGI with HCT-116 colon, in the experiment with HCT-15 colon and in the experiment with A498 renal was above 100 µM throughout.

For `CCOP(=O)(OCC)C1CCCCOC1=O` (centres undefined), the TGI with SK-MEL-28 melanoma, with M14 melanoma, in the experiment on UACC-257 melanoma, with SF-295 CNS, in the experiment with SK-OV-3 ovarian and in the experiment with HL-60(TB) leukemia was above 100 µM in each case. Also, the TGI with HCT-116 colon, in the experiment on HCT-15 colon and in the experiment with A498 renal was above 100 µM in each case.

For the compound `Nc1cc(=O)[nH]c(SC2=NC(N)CC(O)C2)n1` (centres undefined), the TGI in the experiment with SK-MEL-28 melanoma, in the experiment with M14 melanoma, with UACC-257 melanoma, in the experiment on SF-295 CNS, in the experiment on SK-OV-3 ovarian and in the experiment on HCT-15 colon was above 100 µM each time.

As for `Cc1ccc2c(c1)C1(C)OC(CC(N)C1O)O2` (centres undefined), the TGI with SK-MEL-28 melanoma, with M14 melanoma, in the experiment with UACC-257 melanoma, in the experiment with SF-295 CNS, in the experiment on SK-OV-3 ovarian and with HL-60(TB) leukemia was above 100 µM each time. Moreover, the TGI with HCT-116 colon and with HCT-15 colon was above 100 µM each time.

With `CCCC(O)[C@@H](O)c1ccc2c(c1O)C(=O)c1c(OC)cccc1C2=O` (some centres undefined), the TGI was above 100 µM in the experiment with SK-MEL-28 melanoma; 69.1 µM in the experiment on M14 melanoma; 68.8 µM in the experiment on UACC-257 melanoma; above 100 µM with SF-295 CNS; above 100 µM in the experiment on SK-OV-3 ovarian; 42.9 µM in the experiment on HL-60(TB) leukemia. Besides, the TGI was above 100 µM in the experiment with HCT-116 colon, 82.5 µM in the experiment with HCT-15 colon and above 100 µM with A498 renal.

For `CC1(Sc2ccccc2)CN(Cc2ccccc2)C1=O` (centres undefined), the TGI with SK-MEL-28 melanoma, with M14 melanoma, in the experiment with UACC-257 melanoma, in the experiment with SF-295 CNS, in the experiment on SK-OV-3 ovarian and in the experiment with HL-60(TB) leukemia was above 100 µM throughout. The TGI in the experiment on HCT-116 colon, with HCT-15 colon and with A498 renal was above 100 µM in each case.

For `COC(=O)CCC(=O)N1Cc2cc(C)ccc2N(C(=O)CCC(=O)OC)Cc2cc(C)ccc21`, the TGI in the experiment on SK-MEL-28 melanoma, in the experiment with M14 melanoma, with SF-295 CNS, in the experiment on SK-OV-3 ovarian, with HL-60(TB) leukemia and in the experiment on HCT-116 colon was above 100 µM each time. The same compound showed a TGI in the experiment on HCT-15 colon above 100 µM.

Take `O=C(NCCCCCCNC(=O)c1cccc2ccccc12)c1cccc2ccccc12`: the TGI in the experiment with SK-MEL-28 melanoma was above 100 µM; in the experiment on M14 melanoma it was above 100 µM; in the experiment on UACC-257 melanoma, above 100 µM; in the experiment with SF-295 CNS it was 3.4 µM; in the experiment with SK-OV-3 ovarian, 56.9 µM; in the experiment on HL-60(TB) leukemia it was above 100 µM. The TGI is 53.9 µM in the experiment with HCT-116 colon, above 100 µM with HCT-15 colon and 65.6 µM in the experiment on A498 renal.

`CCOC(=O)C=C1CCN(C(=O)c2ccccc2)CC1`: the TGI in the experiment on SK-MEL-28 melanoma, in the experiment on M14 melanoma, with UACC-257 melanoma, in the experiment on SF-295 CNS, in the experiment on SK-OV-3 ovarian and in the experiment with HL-60(TB) leukemia was above 100 µM throughout. For the same compound, the TGI with HCT-116 colon, in the experiment on HCT-15 colon and in the experiment with A498 renal was above 100 µM each time.

As to `NC(=O)OCC(COc1ccc(Cl)cc1)OC(=O)c1ccccc1Cl` (centres undefined), the TGI in the experiment on SK-MEL-28 melanoma was 37.7 µM; in the experiment on M14 melanoma, 32.8 µM; with UACC-257 melanoma, 37.8 µM; with SF-295 CNS, 62.2 µM; with SK-OV-3 ovarian, above 100 µM; with HL-60(TB) leukemia, 41.5 µM. Moreover, the TGI in the experiment on HCT-116 colon was 30.7 µM; in the experiment with HCT-15 colon it was 30 µM; with A498 renal it was above 100 µM.
